# According to PubChem BioAssay (NCI):
#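 In this assay, cells in 96-well plates receive the compound at five concentrations for 48 hours. Endpoints are linearly interpolated between the surrounding concentrations. GI50 = concentration required for 50% inhibition of growth. TGI denotes the concentration required for complete inhibition of growth.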
# Key:
# Experiment in all cases: NCI-60 cell line screen, 48 h
# [1] = system: SF-295 CNS
# [2] = system: 786-0 renal
# [3] = system: OVCAR-4 ovarian
# [4] = system: CCRF-CEM leukemia
# [5] = system: SR leukemia
# [6] = system: HL-60(TB) leukemia
# [7] = system: K-562 leukemia
# [8] = system: SNB-75 CNS
# [9] = system: PC-3 prostate
# [10] = system: HT29 colon
# [11] = system: OVCAR-8 ovarian
# [12] = system: HCC-2998 colon
# [13] = system: SK-OV-3 ovarian
# [14] = system: A549 NSCLC
# [15] = system: UO-31 renal
# [16] = system: SNB-19 CNS
# [17] = system: SW-620 colon
# [18] = system: HS 578T breast
# [19] = system: ACHN renal
# [20] = system: EKVX NSCLC
# [21] = system: MDA-MB-435
# [22] = system: RPMI-8226 leukemia
# [23] = system: MOLT-4 leukemia
# [24] = system: HOP-92 NSCLC
# [25] = system: A498 renal
# [26] = system: KM12 colon
# [27] = system: MALME-3M melanoma
# [28] = system: IGROV1 ovarian
# [29] = system: SK-MEL-28 melanoma
# [30] = system: RXF 393 renal
# [31] = system: SN12C renal
# [32] = system: NCI/ADR-RES ovarian
# [33] = system: SK-MEL-2 melanoma
# [34] = system: MDA-MB-231 breast
# [35] = system: T-47D breast
# [36] = system: COLO 205 colon
# [37] = system: UACC-62 melanoma
# [38] = system: SF-268 CNS
# [39] = system: CAKI-1 renal
# [40] = system: MCF7 breast
# [41] = system: HCT-15 colon
# [42] = system: NCI-H23 lung
# [43] = system: OVCAR-5 ovarian
# [44] = system: U251 CNS
# [45] = system: M14 melanoma
# [46] = system: SK-MEL-5 melanoma
# [47] = system: NCI-H460 lung
# [48] = system: HOP-62 NSCLC
# [49] = system: DU-145 prostate
# [50] = system: OVCAR-3 ovarian
# [51] = system: TK-10 renal
# [52] = system: NCI-H226 lung
# [53] = system: LOX IMVI melanoma
# [54] = system: NCI-H522 lung
# [55] = system: SF-539 CNS
# [56] = system: UACC-257 melanoma
# [57] = system: HCT-116 colon
# [58] = system: BT-549 breast
compound,measurement,setting,value
O=C1/C(=C/c2ccccc2)CN(C(=O)c2cccnc2)C/C1=C\c1ccccc1,GI50,[1],1790 nM
same,TGI,[1],4.23 µM
same,GI50,[2],2070 nM
same,TGI,[2],4.57 µM
same,GI50,[3],3.3 µM
same,TGI,[3],13.8 µM
same,GI50,[4],558 nM
same,TGI,[4],6.05 µM
same,GI50,[5],311 nM
same,TGI,[5],1350 nM
same,GI50,[6],2340 nM
same,TGI,[6],11.5 µM
same,GI50,[7],347 nM
same,TGI,[7],> 100 µM
same,GI50,[8],5.48 µM
same,TGI,[8],26.7 µM
same,GI50,[9],1440 nM
same,TGI,[9],4.81 µM
same,GI50,[10],241 nM
same,TGI,[10],563 nM
same,GI50,[11],2080 nM
same,TGI,[11],11.8 µM
same,GI50,[12],939 nM
same,TGI,[12],2270 nM
same,GI50,[13],3.52 µM
same,TGI,[13],11.6 µM
same,GI50,[14],3.1 µM
same,TGI,[14],12.2 µM
same,GI50,[15],1400 nM
same,TGI,[15],2900 nM
same,GI50,[16],1490 nM
same,TGI,[16],10.8 µM
same,GI50,[17],330 nM
same,TGI,[17],1800 nM
same,GI50,[18],5.56 µM
same,TGI,[18],41.5 µM
same,GI50,[19],1990 nM
same,TGI,[19],4.53 µM
same,GI50,[20],2860 nM
same,TGI,[20],11.1 µM
same,GI50,[21],483 nM
same,TGI,[21],2150 nM
same,GI50,[22],318 nM
same,TGI,[22],1440 nM
same,GI50,[23],752 nM
same,TGI,[23],> 100 µM
same,GI50,[24],10.9 µM
same,TGI,[24],23.6 µM
same,GI50,[25],2190 nM
same,TGI,[25],5.42 µM
same,GI50,[26],271 nM
same,TGI,[26],765 nM
same,GI50,[27],4.78 µM
same,TGI,[27],18.9 µM
same,GI50,[28],2850 nM
same,TGI,[28],9.74 µM
same,GI50,[29],2390 nM
same,TGI,[29],6.37 µM
same,GI50,[30],1720 nM
same,TGI,[30],3.3 µM
same,GI50,[31],2390 nM
same,TGI,[31],7.96 µM
same,GI50,[32],3.03 µM
same,TGI,[32],21.2 µM
same,GI50,[33],6.72 µM
same,TGI,[33],20.6 µM
same,GI50,[34],1920 nM
same,TGI,[34],4.83 µM
same,GI50,[35],2920 nM
same,TGI,[35],12.2 µM
same,GI50,[36],1550 nM
same,TGI,[36],3.67 µM
same,GI50,[37],2320 nM
same,TGI,[37],5.5 µM
same,GI50,[38],2780 nM
same,TGI,[38],13.7 µM
same,GI50,[39],2830 nM
same,TGI,[39],10.3 µM
same,GI50,[40],322 nM
same,TGI,[40],1460 nM
same,GI50,[41],331 nM
same,TGI,[41],1380 nM
same,GI50,[42],1830 nM
same,TGI,[42],5.19 µM
same,GI50,[43],2000 nM
same,TGI,[43],5.13 µM
same,GI50,[44],435 nM
same,TGI,[44],2410 nM
same,GI50,[45],1930 nM
same,TGI,[45],5.17 µM
same,GI50,[46],1800 nM
same,TGI,[46],3.68 µM
same,GI50,[47],2580 nM
same,TGI,[47],11 µM
same,GI50,[48],3.02 µM
same,TGI,[48],10.4 µM
same,GI50,[49],2040 nM
same,TGI,[49],6.13 µM
same,GI50,[50],505 nM
same,TGI,[50],1710 nM
same,GI50,[51],3.57 µM
same,TGI,[51],13.4 µM
same,GI50,[52],3.12 µM
same,TGI,[52],9.79 µM
same,GI50,[53],210 nM
same,TGI,[53],483 nM
same,GI50,[54],1570 nM
same,TGI,[54],3.66 µM
same,GI50,[55],2140 nM
same,TGI,[55],6.19 µM
same,GI50,[56],3.2 µM
same,TGI,[56],11 µM
same,GI50,[57],319 nM
same,TGI,[57],880 nM
CN(C)c1ccc(/C=C2\C[C@H]3[C@@H]4CCc5cc(OCCN6CCCC6)ccc5[C@H]4CC[C@]3(C)C2=O)cc1,TGI,[2],2.6 µM
same,TGI,[10],814 nM
same,TGI,[16],4.09 µM
same,TGI,[19],3.11 µM
same,TGI,[20],6.32 µM
same,TGI,[31],2.97 µM
same,TGI,[33],3.93 µM
same,TGI,[36],2.85 µM
same,TGI,[37],4.24 µM
same,TGI,[41],2660 nM
same,TGI,[42],> 100 µM
same,TGI,[43],8.62 µM
same,TGI,[46],3.22 µM
same,TGI,[58],> 100 µM
same,TGI,[56],5.35 µM
same,TGI,[57],2450 nM
NC(=S)N/N=C(\Cc1nc2ccc(Cl)cc2[nH]c1=O)C(=O)Nc1ccc(Cl)cc1,TGI,[1],> 100 µM
same,TGI,[2],> 100 µM
same,TGI,[3],> 100 µM
same,TGI,[4],> 100 µM
same,TGI,[6],> 100 µM
same,TGI,[8],> 100 µM
same,TGI,[9],> 100 µM
same,TGI,[10],> 100000 nM
same,TGI,[11],> 100 µM
same,TGI,[12],> 100000 nM
same,TGI,[13],> 100 µM
same,TGI,[14],> 100 µM
same,TGI,[15],> 100000 nM
same,TGI,[16],> 100 µM
same,TGI,[17],> 100000 nM
same,TGI,[18],> 100 µM
same,TGI,[19],> 100 µM
same,TGI,[20],> 100 µM
same,TGI,[21],> 100000 nM
same,TGI,[23],> 100 µM
same,TGI,[24],> 100 µM
same,TGI,[26],> 100000 nM
same,TGI,[28],> 100 µM
same,TGI,[29],> 100 µM
same,TGI,[30],> 100 µM
same,TGI,[31],> 100 µM
same,TGI,[32],> 100 µM
same,TGI,[33],> 100 µM
same,TGI,[34],> 100 µM
same,TGI,[36],> 100 µM
same,TGI,[37],> 100 µM
same,TGI,[38],> 100 µM
same,TGI,[39],> 100 µM
same,TGI,[40],> 100000 nM
same,TGI,[41],> 100000 nM
same,TGI,[42],> 100 µM
same,TGI,[43],> 100 µM
same,TGI,[44],> 100000 nM
same,TGI,[45],> 100 µM
same,TGI,[46],> 100 µM
same,TGI,[47],> 100 µM
same,TGI,[48],> 100 µM
same,TGI,[49],> 100 µM
same,TGI,[50],> 100000 nM
same,TGI,[51],> 100 µM
same,TGI,[52],> 100 µM
same,TGI,[58],> 100 µM
same,TGI,[53],> 100000 nM
same,TGI,[54],> 100 µM
same,TGI,[55],> 100 µM
same,TGI,[56],> 100 µM
same,TGI,[57],> 100000 nM
